The results in this text go back to PMC8197855, “Peptide/β-Peptoid Hybrids with Activity against Vancomycin-Resistant Enterococci: Influence of Hydrophobicity and Structural Features on Antibacterial and Hemolytic Properties” (International Journal of Molecular Sciences, 2021).

Structures are written as SMILES. ≈ marks a conversion by molar mass, not a printed value. A value given as a limit tells only on which side of the number the result lay.

Series [1] deals with E. faecium isolates. The class given is cell-based, Enterococcus faecium. To be noted: 24 h. The protocol:
(§1) Overnight cultures of the enterococcal isolates were diluted in physiological saline (0.9% NaCl) to reach a turbidity of 0.5 McFarland units (Sensititre® nephelometer and the Sensititre® McFarland Standard). Bacterial suspensions were adjusted to 5 × 10^5 CFU/mL in MHB II or BHI broth containing two-fold dilutions of peptidomimetics or conventional antibiotics in a final volume of 100 µL. The plates were incubated for 24 h at 37 °C without shaking. […] All experiments were performed in three biological replicates.

Series [2] relates to E. faecium ATCC 19434. Kind of series: microbe, parasite or virus in culture. The class given is cell-based, Enterococcus faecium. The conditions noted are these: for Minimum inhibitory concentration: ATCC 19434, 24 h. Here is the method: (§2) Overnight cultures of the enterococcal isolates were diluted in physiological saline (0.9% NaCl) to reach a turbidity of 0.5 McFarland units (Sensititre® nephelometer and the Sensititre® McFarland Standard). Bacterial suspensions were adjusted to 5 × 10^5 CFU/mL in MHB II or BHI broth containing two-fold dilutions of peptidomimetics or conventional antibiotics in a final volume of 100 µL. The plates were incubated for 24 h at 37 °C without shaking. […] All experiments were performed in three biological replicates. […]

Series [3] has as its system E. faecalis 38262. Nature of the series: microbe, parasite or virus in culture. It counts as cell-based, Enterococcus faecalis. To be noted: for Minimum inhibitory concentration: 38262, 24 h. Here is the method: as §1
Series [4] relates to E. faecalis 39002. Kind of series: microbe, parasite or virus in culture. It counts as cell-based, Enterococcus faecalis. The conditions noted are these: for Minimum inhibitory concentration: 39002, 24 h. The protocol:
as §1

Series [5] is described as follows: Hemolytic activity. To be noted: human, human red blood cells (washed, 1% suspension), 37 °C, 1% red blood cell suspension. The class given is cell-based, human. Here is the method: (§3) A suspension of hRBCs (Single-donor human red blood cells—washed; catalogue No. IPLA-W3 from Innovative researchTM) was washed three times with PBS buffer and centrifuged for 5 min at 2500 rpm. A two-fold serial dilution of compounds in PBS buffer was prepared. Plates (conical-bottomed 96-well plates) with 3 replicate wells per dilution, containing 1% red blood cell suspension, were prepared and dosed with the test compound to achieve a final concentration of 400 μg/mL in a total volume of 100 μL. The plates were incubated (37 °C) for 60 min with mild agitation, and then the cells were pelleted by centrifugation at 1500 rpm for 5 min. Then, the supernatants (50 μL) were transferred to a fresh 96-well plate, and then the concentration of hemoglobin was detected by measuring the OD at 405 nm. The OD of cells incubated with 1% SDS achieved 100% hemolysis, while the OD of cells incubated with PBS buffer achieved 0% hemolysis. The concentration tested was 400 μg/mL (only average values are stated in Table 3). The percent hemolysis was calculated by using the formula:Hemolysis(%) = 100 × [(Asample − Aneg.control)/(Apos. control − Aneg.control)]

Series [6] deals with human red blood cells. Nature of the series: Hemolytic activity. The conditions noted are these: 60 min, 37 °C, 1% red blood cell suspension. The class given is cell-based. The protocol:
as §3

The subject of series [7] is E. faecium 2961. Nature of the series: microbe, parasite or virus in culture. It counts as cell-based, Enterococcus faecium. The conditions noted are these: for Minimum inhibitory concentration: 2961, 24 h. The protocol: as §1
Series [8] has as its system E. faecium 1798. Nature of the series: microbe, parasite or virus in culture. The class given is cell-based, Enterococcus faecium. To be noted: for Minimum inhibitory concentration: 1798, 24 h. The protocol:
as §1

The test system of series [9] is E. faecium D344R. Kind of series: microbe, parasite or virus in culture. It counts as cell-based, Enterococcus faecium. The conditions noted are these: 24 h; for Minimum inhibitory concentration: E. faecium D344R, human clinical isolate. The protocol: as §1
The test system of series [10] is E. faecium 3978. Kind of series: microbe, parasite or virus in culture. The class given is cell-based, Enterococcus faecium. The conditions noted are these: for Minimum inhibitory concentration: 3978, 24 h. Here is the method:
as §1

Series [11] relates to HepG2 cell line ATCC HB-8065. Kind of series: Effect on HepG2 cell viability (MTT assay). The conditions noted are these: 48 h. The class given is cell-based, human. The protocol:
The effect of peptidomimetics on mammalian cell viability was determined on the HepG2 cell line ATCC HB-8065. In brief, HepG2 cells were seeded into flat-bottom 96-well plates at a concentration of 5000 cells per well. The cells were incubated for 24 h in a humidified incubator (5% CO2, 37 °C). Subsequently, the medium was removed, and the cells were incubated for 48 h in a humidified incubator (5% CO2, 37 °C) with peptidomimetics in serial dilutions. An MTT assay was then performed; in brief, after incubation with the test compounds, the culture medium was removed and fresh medium with 0.2 mg/mL MTT was then added into each well. After incubation (3 h, 37 °C, 5% CO2), the medium with MTT was removed, and 200 μL dimethyl sulfoxide was added at once to each sample. The absorbance of MTT was measured using the spectrophotometer TECAN Infinite M1000 at 540 nm. The relative viability was calculated by using the formula:ODtreated cells × 100/ODcontrol cells
The IC50 values were calculated using the program Graph Pad Prism 5.0. For all compounds, the test range was 10–1280 μg/mL.
A general note: Formazan colour is commonly taken as a measure of viable cells.

Series [12] in a line: Hydrophobicity by analytical RP-HPLC (% MeCN at peak elution). The class given is physicochemical. Here is the method:
Water was filtered by using an Evoqua LaboStar PRO TWF Ultra Pure Water System prior to use in high-performance liquid chromatography (HPLC). The retention time for each peptidomimetic was determined by analytical HPLC using a Phenomenex Luna C18(2) HST column (100 mm × 3 mm; particle size: 2.5 μm; pore size: 100 Å) on a Shimadzu Prominence and Shimadzu Nexera system using an aqueous MeCN gradient with 0.1% trifluoroacetic acid (TFA) added (eluent A: 5:95 MeCN–H2O + 0.1% TFA; eluent B: 95:5 MeCN–H2O + 0.1% TFA); a flow rate of 0.5 mL/min was used. For the elution of peptidomimetics, a linear gradient of 0% to 60% B over 10 min was used with UV detection at λ = 220 nm. The percentage MeCN at peak elution was calculated from the retention time (tR) by using the following formula:%MeCN = [0.95 × 0.6 × tR/10 + 0.05 × (1 − 0.6 × tR/10)] × 100%

In series [13] the test system is E. faecalis ATCC 29212. Kind of series: microbe, parasite or virus in culture. The class given is cell-based, Enterococcus faecalis. Here is the method: as §2
Series [14] concerns E. faecalis isolates. The class given is cell-based, Enterococcus faecalis. The conditions noted are these: 24 h. The protocol: as §1
The test system of series [15] is E. faecalis ATCC 29212. Kind of series: Broth checkerboard assay with conventional antibiotics. It counts as cell-based, Enterococcus faecalis. To be noted: antibiotic alone (-); BHI broth. The protocol: (§4) The strain culture preparation and final volume were the same as in the MIC assay. […] The plates were incubated for 24 h at 37 °C without shaking. […] All experiments were performed in two biological replicates.
(§5) To evaluate the effect of the combinations, the fractional inhibitory concentration index (FICI) was calculated for each combination according to:ΣFIC = FICA + FICB = (CA/MICA) + (CB/MICB)
(§6) The drug interaction was scored as follows: synergy—FICI ≤ 0.5; no interaction—FICI > 0.5–4; antagonism—FICI > 4 [40].

Series [16] deals with E. faecium 2961. The description is as above. The class given is cell-based, Enterococcus faecium. To be noted: antibiotic alone (-); BHI broth. The protocol: as §4, §5, §6
Series [17] relates to E. faecium 1798. Described as above. The class given is cell-based, Enterococcus faecium. To be noted: antibiotic alone (-); BHI broth. Here is the method:
as §4, §5, §6

The test system of series [18] is E. faecium ATCC 19434. Described as above. It counts as cell-based, Enterococcus faecium. The conditions noted are these: antibiotic alone (-); BHI broth. Here is the method:
as §4, §5, §6

For the compound `CC(=O)N[C@@H](CCCCNC(=N)N)C(=O)N(CCC(=O)N[C@@H](CCCCNC(=N)N)C(=O)N(CCC(=O)N[C@@H](CCCCNC(=N)N)C(=O)N(CCC(=O)N[C@@H](CCCCNC(=N)N)C(=O)N(CCC(=O)N[C@@H](CCCCNC(=N)N)C(=O)N(CCC(=O)N[C@@H](CCCCNC(=N)N)C(=O)N(CCC(=O)N[C@@H](CCCCNC(=N)N)C(=O)N(CCC(=O)N[C@@H](CCCCNC(=N)N)C(=O)N(CCC(N)=O)Cc1ccccc1)Cc1ccccc1)Cc1ccccc1)Cc1ccccc1)Cc1ccccc1)Cc1ccccc1)Cc1ccccc1)Cc1ccccc1` [Compound 1, Ac-[hArg-βNPhe]8-NH2], the “MIC (range or typical value) against E. faecium” value in [1] lay in the range of 2 to 8 µg/mL. Further, the Minimum inhibitory concentration in [2] stood at 8 µg/mL (≈ 2.95 µM); in series [3], 16 µg/mL (≈ 5.9 µM); in series [4] it was 32 µg/mL (≈ 11.8 µM); in [7] it was 2 µg/mL (≈ 0.738 µM); in series [8] it was 2 µg/mL (≈ 0.738 µM); in series [9] it was 4 µg/mL (≈ 1.48 µM). The Minimum inhibitory concentration in [10] amounted to 4 µg/mL (≈ 1.48 µM). In series [5], the hemolysis at 60 min, 400 µg/mL is roughly 6%. Also, the “Hemolysis (at 400 µg/mL)” value in [6] was determined as 6.1%. The “HepG2 IC50” value in series [11] is on record as 9 µg/mL. For the same compound, in series [12], the “Hydrophobicity, Luna C18(2) HST (0–60% B; 10 min), retention converted into % MeCN” value was 41.8 % MeCN.

Turning to `C[C@@H](c1ccccc1)N(CCC(=O)N[C@@H](CCCCN)C(=O)N(CCC(=O)N[C@@H](CCCCNC(=N)N)C(=O)N(CCC(=O)N[C@@H](CCCCN)C(=O)N(CCC(=O)N[C@@H](CCCCNC(=N)N)C(=O)N(CCC(=O)N[C@@H](CCCCN)C(=O)N(CCC(N)=O)[C@@H](C)c1ccccc1)[C@@H](C)c1ccccc1)[C@@H](C)c1ccccc1)[C@@H](C)c1ccccc1)[C@@H](C)c1ccccc1)C(=O)[C@H](CCCCNC(=N)N)NC(=O)C=Cc1ccccc1` [Compound 6, Cinn-[hArg-βNspe-Lys-βNspe]3-NH2], the “MIC (range or typical value) against E. faecium” value in [1] is 4 to 8 µg/mL. The Minimum inhibitory concentration stood at 8 µg/mL (≈ 3.82 µM) in series [2]; 16 µg/mL (≈ 7.64 µM) in [13] (ATCC 29212, 24 h); 16 µg/mL (≈ 7.64 µM) in [3]; 16 µg/mL (≈ 7.64 µM) in series [4]; 4 µg/mL (≈ 1.91 µM) in [7]; 4 µg/mL (≈ 1.91 µM) in [8]. For the same compound, the Minimum inhibitory concentration in [9] and in series [10] was 4 µg/mL (≈ 1.91 µM) in each case. Also, in series [14], the “MIC (range) against E. faecalis” value is given as 16 µg/mL (≈ 7.64 µM). In series [5], this compound yielded a hemolysis at 60 min, 400 µg/mL of 15.7%. Also, the “HepG2 IC50” value in series [11] turned out to be 42 µg/mL. In addition, the “Hydrophobicity, Luna C18(2) HST (0–60% B; 10 min), retention converted into % MeCN” value in [12] was found to be 45.9 % MeCN.

Take `CN[C@H](CC(C)C)C(=O)N[C@H]1C(=O)N[C@@H](CC(N)=O)C(=O)N[C@H]2C(=O)N[C@H]3C(=O)N[C@H](C(=O)N[C@H](C(=O)O)c4cc(O)cc(O)c4-c4cc3ccc4O)[C@H](O)c3ccc(c(Cl)c3)Oc3cc2cc(c3O[C@@H]2O[C@H](CO)[C@@H](O)[C@H](O)[C@H]2O[C@H]2C[C@](C)(N)[C@H](O)[C@H](C)O2)Oc2ccc(cc2Cl)[C@H]1O` [Vancomycin, vancomycin]: the MIC in [2] (Enterococcus faecium, ATCC19434, 24 h, read-out: Minimum inhibitory concentration) was 1 to 2 µg/mL (≈ 0.69 to 1.38 µM); in [13] (Enterococcus faecalis, ATCC29212, 24 h, read-out: Minimum inhibitory concentration), 2 to 4 µg/mL (≈ 1.38 to 2.76 µM); in series [3] (Enterococcus faecalis, 38262, 24 h, read-out: Minimum inhibitory concentration) it was 1 µg/mL (≈ 0.69 µM); in series [4] (Enterococcus faecalis, 39002, 24 h, read-out: Minimum inhibitory concentration), 1 µg/mL (≈ 0.69 µM); in [7] (Enterococcus faecium, 2961, 24 h, read-out: Minimum inhibitory concentration), greater than 256 µg/mL; in [8] (Enterococcus faecium, 1798, 24 h, read-out: Minimum inhibitory concentration), greater than 256 µg/mL. For the same compound, the MIC in series [9] (Enterococcus faecium, D344R, read-out: Minimum inhibitory concentration) was found to be 2 µg/mL (≈ 1.38 µM); in [10] (Enterococcus faecium, 3978, 24 h, read-out: Minimum inhibitory concentration), 16 µg/mL (≈ 11 µM). Besides, the MIC of antibiotic was 2 to 4 µg/mL in [15], greater than 256 µg/mL in [16], greater than 256 µg/mL in [17] and 1 to 2 µg/mL in series [18].
